Source: US12678436B2, “Pharmaceutical composition for preventing or treating fibrosis” (Daewoong Pharmaceutical Co., Ltd., priority 2021, dated 2026)

Columns and labels:
ICR mice = assay: 2-week repeated dose toxicity test in mice; format: in vivo; conditions: for SPLEEN % to BODY WEIGHT / SPLEEN weight / THYMUS % to BODY WEIGHT / THYMUS weight: 2 weeks, male ICR mice
Description: The active component was orally administered to acclimatized ICR mice for 7 days or more for 2 weeks.
After administration for 2 weeks, autopsies were performed on all animals. At autopsy, the weight of each organ was measured.

[1] = Human pharmacokinetics, single administration (SAD); format: in vivo; conditions: median; healthy adults, single oral 500 mg, enteric coated tablet, N = 6
Description: (§1) The formulation used in the clinical trial was prepared in the same manner as in Preparation Examples 1 and 2.

[2] = Measurement of change in body weight in BLM-administered mice; format: in vivo; conditions: for change in body weight: 21st day
Description: (§2) 70-100 μL of BLM solution (bleomycin 1-3 mg/kg) was administered to a lung of the acclimatized experimental animals using a catheter for 5 days or more. In accordance with the purpose of the test, the test drug was administered 7 days after BLM administration, and the drug was orally administered for 2 weeks until the 21st day of BLM administration. Body weight, SpO2, hydroxyproline, and inflammation cell counts were measured to determine the anti-fibrotic efficacy of the active component.
(§3) As a control group, Nintedanib (hereinafter ‘NIN’) and Pirfenidone (hereinafter ‘PID’), which are standard of care (hereinafter ‘SoC’) for idiopathic pulmonary fibrosis, were used. The effective dose of NIN used was confirmed through in vivo efficacy data in the literature published by Boehringer Ingelheim, which is a NIN development company, and the effective dose of PID was set in terms of mice based on in vivo efficacy (rat) data and 2-week repeated toxicity dose (rat) in FDA Pharmacology Review.
Body weight is an indirect indicator that can know the degree of improvement in the overall physical condition of the animal model. When the degree of weight loss is small, it can be inferred that the overall physical condition or symptoms of the disease are improved.
The body weight was measured using a scale on the 21st day when the administration was completed, and the results are shown in Table 6 and FIG. 5 below.

[3] = Human pharmacokinetics, multiple administration (MAD), Day 14; format: in vivo; conditions: for Accumulation ratio based on AUCT: Day 14, N = 6; for AUC(0-t): human, plasma, oral
Description: as §1

[4] = test system: animal model of pulmonary fibrosis; assay: Measurement of total collagen content in lung (INSOLUBLE Collagen Assay); format: in vivo, mice; conditions: for collagen content in lung (hydroxyproline ratio value compared with normal group): 21st day
Description: as §2, §3
Pulmonary fibrosis is the accumulation of collagen in the lungs to make it stiff. The main cause of pulmonary fibrosis is the accumulation of collagen, and the degree of progression of fibrosis can be predicted by measuring the collagen content in the lung tissue.
In this experimental example, analysis was performed using INSOLUBLE Collagen Assay (Biocolor, S2000). After sacrifice on the 21st day, the cryopreserved lung tissue was pulverized by adding 100 uL of Fragmentation Reagent, and then, 100 uL of 37% HCl was added and incubated at 65°C. for 3 hours. The contents of the tube were shaken at 30 minute intervals to aid tissue disintegration. After centrifugation, the concentration was adjusted to 100 μL and collagen staining was proceeded to prepare a sample. Absorbance was measured at 560 nm.

[5] = test system: animal model of pulmonary fibrosis; assay: Histopathology (Ashcroft score) analysis of lung tissue; format: in vivo, mice; conditions: for Fibrotic Index (±SEM): 21st day, 9 individuals
Description: as §2, §3
The degree of fibrosis and inflammation of the lung tissue were visually observed through a microscope, and the degree of fibrosis of lung tissue was measured with a Fibrotic Index according to normalized criteria. The higher the Fibrotic Index value, the more severe the degree and symptom of fibrosis. It is interpreted that as the value is lower, the symptom is relieved.
On the 21st day, lung tissue was separated and stained using H&E and MT stain, and observed at 200× magnification. The observed results were scored by Ashcroft (Hubner et al., 2008). The fibrotic index was calculated by dividing the sum of the adjusted Ashcroft field scores by the number of fields tested, and shown in Table 4 and FIG. 3.

[6] = Pharmacokinetic test after single oral administration in ICR mice; format: in vivo; conditions: mouse, blood; ICR mice (male), single oral 10 mg/kg, saline
Description: The pharmacokinetic parameters were calculated using Excel® and WinNonlin6.1 software for the blood drug concentration according to the change over time obtained through LC-MS/MS, and changes in the blood concentration of the active component are shown in Table 9 and FIG. 6.

[7] = test system: animal model of pulmonary fibrosis; assay: Inflammation cell count analysis in BALF; format: in vivo, mice; conditions: for Lymphocyte (BALF cell count) / Macrophage (BALF cell count) / Neutrophil (BALF cell count) / Total cell (BALF cell count): 21st day
Description: as §2, §3
Since fibrosis is a chronic inflammatory disease characterized by excessive collagen deposition, the infiltration of inflammatory cells was analyzed to determine the degree of inflammation in the lung tissue.
At the sacrifice on the 21st day of administration, BALF (Bronchoalveolar lavage fluid) cells obtained through airway washing of mice were diluted with 1.05×PBS and attached to a slide, and then the slide was immersed and removed for 30 seconds in the order of 1, 2, 3 diff quick stain solution, and stained. It was counted based on 500 cells. Macrophages are the largest in size, mononuclear, and stained blue. Neutrophils and eosinophils form polynuclear cells, but eosinophils are stained red with eosin and distinguished from neutrophils. Lymphocytes have very less cytoplasm and are small in size as monocytes.

healthy adults = assay: Human administration safety/drug tolerance; format: in vivo
Description: as §1
The safety and drug resistance of the compound of the present invention during administration to humans was confirmed in the same manner as in Experimental Example 4.

[8] = test system: animal model of pulmonary fibrosis; assay: Lung function evaluation (SpO2) in BLM-administered mice; format: in vivo; conditions: for SpO2: 2 weeks, 21st day after BLM
Description: as §2, §3
This lung function evaluation is the most direct and important evaluation index that has the greatest influence on the symptoms and quality of life of patients with pulmonary fibrosis, and is an experiment that can most directly show the effect of improving lung function in an animal model of pulmonary fibrosis by measuring the oxygen concentration in the body.
On the 21st day, it was measured with a SpO2 measuring device (Berry, Veterinary Pulse Oximeter) via the abdominal side of the mouse, and the results are shown in Table 2 and FIG. 1.

Compound: O[C@H]1CCCN[C@@H]1CCCn1cnc2c(Cl)c(Cl)ccc21 [Active component]
- SPLEEN % to BODY WEIGHT (ICR mice; 30 mg/kg/day oral): 0.22%
- SPLEEN weight (ICR mice; 30 mg/kg/day oral): 0.059
- THYMUS % to BODY WEIGHT (ICR mice; 30 mg/kg/day oral): 0.10%
- THYMUS weight (ICR mice; 30 mg/kg/day oral): 0.026
- SPLEEN % to BODY WEIGHT (ICR mice; 60 mg/kg/day oral): 0.25%
- SPLEEN weight (ICR mice; 60 mg/kg/day oral): 0.070
- THYMUS % to BODY WEIGHT (ICR mice; 60 mg/kg/day oral): 0.11%
- THYMUS weight (ICR mice; 60 mg/kg/day oral): 0.029
- toxicity / abnormal symptoms after repeated administration for 2 weeks (ICR mice; 30, 60, 120→90 mg/kg/day oral, ICR mice): No toxicity or significant abnormal symptoms
- SPLEEN % to BODY WEIGHT (ICR mice; 120→90 mg/kg/day oral): 0.17%
- SPLEEN weight (ICR mice; 120→90 mg/kg/day oral): 0.046
- THYMUS % to BODY WEIGHT (ICR mice; 120→90 mg/kg/day oral): 0.05%
- THYMUS weight (ICR mice; 120→90 mg/kg/day oral): 0.015
- organ weight of spleen and thymus (ICR mice; administration group of 30 mg/kg/day or more): slight weight loss tendency
- tmax [1]: 3.01 h
- degree of body weight loss compared with Vehicle group ([2]; 10 mg/kg): improved
- degree of body weight loss compared with Vehicle group ([2]; 30 mg/kg): improved
- change in body weight ([2]; Active component 3 mg/kg oral): −22.44
- change in body weight ([2]; Active component 10 mg/kg oral): −19.11
- change in body weight ([2]; Active component 30 mg/kg oral): −16.78
- Accumulation ratio based on AUCT ([3]; 25 mg tablet twice a day): 1.94
- Accumulation ratio based on AUCT ([3]; 50 mg tablet twice a day): 2.33
- AUCT ([3]; 100 mg tablet twice a day, Day 14, 12 hour dosing interval, N = 6): 617.40 ng·h/mL
- Accumulation ratio based on AUCT ([3]; 100 mg tablet twice a day): 1.88
- Accumulation ratio based on AUCT ([3]; 200 mg tablet twice a day): 3.75
- AUC(0-t) ([3]; 25 mg tablet twice a day, Day 14, 12 hour dosing interval, N = 6): 183 ng·h/mL
- AUC(0-t) ([3]; 50 mg tablet twice a day, Day 14, 12 hour dosing interval, N = 6): 429 ng·h/mL
- AUC(0-t) ([3]; 200 mg tablet twice a day, Day 14, 12 hour dosing interval, N = 6): 3010 ng·h/mL
- content of collagen in the lung compared to Vehicle ([4]; 10 mg/kg): significantly reduced
- content of collagen in the lung compared to Vehicle ([4]; 30 mg/kg): significantly reduced
- collagen content in lung (hydroxyproline ratio value compared with normal group) ([4]; Active component 3 mg/kg oral): 253.56
- collagen content in lung (hydroxyproline ratio value compared with normal group) ([4]; Active component 10 mg/kg oral): 217.22
- collagen content in lung (hydroxyproline ratio value compared with normal group) ([4]; Active component 30 mg/kg oral): 171.33
- tissue improvement effect compared with NIN and PID ([5]; 10 mg/kg): tissue improvement effect equivalent to or greater than that of NIN
- tissue improvement effect compared with NIN and PID ([5]; 30 mg/kg): tissue improvement effect equivalent to or greater than that of NIN
- Fibrotic Index (±SEM) ([5]; Active component 3 mg/kg oral): 4.6 (±0.3)
- Fibrotic Index (±SEM) ([5]; Active component 10 mg/kg oral): 2.7 (±0.6)
- Fibrotic Index (±SEM) ([5]; Active component 30 mg/kg oral): 2.8 (±0.4)
- AUC [6]: 1190 ng·h/mL
- number of Neutrophil cells decreased compared to Vehicle ([7]; 10 mg/kg): ≥ 20%
- total cell level improved compared to Vehicle ([7]; 10 mg/kg): ≥ 20%
- number of Neutrophil cells decreased compared to Vehicle ([7]; 30 mg/kg): ≥ 60%
- total cell level improved compared to Vehicle ([7]; 30 mg/kg): ≥ 30%
- Lymphocyte (BALF cell count) ([7]; Active component 3 mg/kg oral): 0.79
- Macrophage (BALF cell count) ([7]; Active component 3 mg/kg oral): 7.80
- Neutrophil (BALF cell count) ([7]; Active component 3 mg/kg oral): 1.74
- Total cell (BALF cell count) ([7]; Active component 3 mg/kg oral): 10.32
- Lymphocyte (BALF cell count) ([7]; Active component 10 mg/kg oral): 0.51
- Macrophage (BALF cell count) ([7]; Active component 10 mg/kg oral): 5.60
- Neutrophil (BALF cell count) ([7]; Active component 10 mg/kg oral): 1.54
- Total cell (BALF cell count) ([7]; Active component 10 mg/kg oral): 7.66
- Lymphocyte (BALF cell count) ([7]; Active component 30 mg/kg oral): 0.46
- Macrophage (BALF cell count) ([7]; Active component 30 mg/kg oral): 4.91
- Neutrophil (BALF cell count) ([7]; Active component 30 mg/kg oral): 0.82
- Total cell (BALF cell count) ([7]; Active component 30 mg/kg oral): 6.19
- serious abnormal signs or side effects in clinical trial (healthy adults; 72 healthy adults, single 100-600 mg and multiple 25-200 mg twice a day): no serious abnormal signs or side effects
- most frequent adverse reactions (healthy adults; single administration, healthy adults): gastrointestinal adverse events including nausea, vomiting, diarrhea and abdominal pain
- oxygen permeation function improved compared with Vehicle ([8]; 10 mg/kg): ≥ 18%
- oxygen permeation function improved compared with Vehicle ([8]; 30 mg/kg): ≥ 28%
- SpO2 ([8]; Active component 3 mg/kg oral): 75.00
- SpO2 ([8]; Active component 10 mg/kg oral): 77.89
- SpO2 ([8]; Active component 30 mg/kg oral): 81.33

Compound: COC(=O)c1ccc2c(c1)NC(=O)/C2=C(\Nc1ccc(N(C)C(=O)CN2CCN(C)CC2)cc1)c1ccccc1 [Nintedanib, reference compound]
- change in body weight ([2]; Nintedanib 60 mg/kg oral): −19.44
- collagen content in lung (hydroxyproline ratio value compared with normal group) ([4]; Nintedanib 60 mg/kg oral): 239.78
- Fibrotic Index (±SEM) ([5]; Nintedanib 60 mg/kg oral): 3.1 (±0.6)
- Lymphocyte (BALF cell count) ([7]; Nintedanib 60 mg/kg oral): 0.68
- Macrophage (BALF cell count) ([7]; Nintedanib 60 mg/kg oral): 5.61
- Neutrophil (BALF cell count) ([7]; Nintedanib 60 mg/kg oral): 1.29
- Total cell (BALF cell count) ([7]; Nintedanib 60 mg/kg oral): 7.57
- SpO2 ([8]; Nintedanib 60 mg/kg oral): 78.67

Compound: Cc1ccc(=O)n(-c2ccccc2)c1 [Pirfenidone, reference compound]
- change in body weight ([2]; Pirfenidone 200 mg/kg oral): −14.67
- collagen content in lung (hydroxyproline ratio value compared with normal group) ([4]; Pirfenidone 200 mg/kg oral): 177.44
- Fibrotic Index (±SEM) ([5]; Pirfenidone 200 mg/kg oral): 4.1 (±0.3)
- Lymphocyte (BALF cell count) ([7]; Pirfenidone 200 mg/kg oral): 0.46
- Macrophage (BALF cell count) ([7]; Pirfenidone 200 mg/kg oral): 5.01
- Neutrophil (BALF cell count) ([7]; Pirfenidone 200 mg/kg oral): 0.68
- Total cell (BALF cell count) ([7]; Pirfenidone 200 mg/kg oral): 6.14
- SpO2 ([8]; Pirfenidone 200 mg/kg oral): 82.00
